We go through 11 molecules from US11168073B2, “3,3-difluoroallylamines or salts thereof and pharmaceutical compositions comprising the same” (YUHAN CORPORATION, priority 2018, dated 2021).

Each structure is given as a SMILES string. Counter-ions that a name gives are not always drawn. Like-named read-outs stand apart in the source and are kept apart here. Bounds are passed on as bounds.

What all share (format): biochemical
In assay [1] the target is T1, recombinant human VAP-1 (Homo sapiens, UniProt Q16853).
T1 construct: purchased R&D systems
T1 sequence (Q16853 1-763): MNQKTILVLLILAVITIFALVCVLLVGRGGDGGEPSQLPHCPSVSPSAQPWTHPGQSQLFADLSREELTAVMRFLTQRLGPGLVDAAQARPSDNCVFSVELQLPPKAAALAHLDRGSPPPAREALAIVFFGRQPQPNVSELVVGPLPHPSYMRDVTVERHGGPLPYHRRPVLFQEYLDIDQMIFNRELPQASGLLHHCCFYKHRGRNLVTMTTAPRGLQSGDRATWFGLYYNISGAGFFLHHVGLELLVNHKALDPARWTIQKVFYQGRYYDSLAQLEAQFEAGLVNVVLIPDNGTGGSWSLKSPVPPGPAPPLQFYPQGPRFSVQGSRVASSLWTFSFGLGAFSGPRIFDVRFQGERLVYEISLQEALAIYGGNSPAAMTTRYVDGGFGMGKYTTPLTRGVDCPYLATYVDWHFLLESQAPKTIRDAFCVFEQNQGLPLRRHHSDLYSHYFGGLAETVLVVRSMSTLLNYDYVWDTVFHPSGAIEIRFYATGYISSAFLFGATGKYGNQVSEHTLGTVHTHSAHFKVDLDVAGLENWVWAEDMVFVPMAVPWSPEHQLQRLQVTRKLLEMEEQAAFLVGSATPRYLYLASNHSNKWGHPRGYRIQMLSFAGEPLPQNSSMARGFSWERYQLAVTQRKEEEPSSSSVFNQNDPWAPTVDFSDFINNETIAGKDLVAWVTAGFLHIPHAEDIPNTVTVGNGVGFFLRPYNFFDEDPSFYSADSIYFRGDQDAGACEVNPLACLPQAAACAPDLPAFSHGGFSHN
Nature of the assay: Activity evaluation on recombinant human VAP-1 (Amplex Red/HRP-coupled hydrogen peroxide assay, benzylamine substrate). The conditions noted are these: read-out: Inhibitory Activity (IC50, nM) human VAP-1. An outline of the steps: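 Hydrogen peroxide from benzylamine (1 mM) oxidation by human recombinant VAP-1 detected via HRP-coupled Amplex Red (200 uM) fluorescence, kinetic over 1–2 h. Enzyme and compound preincubated 30 min at 37 °C, pH 7.4 phosphate; 8-point dose response, signal-rate decrease versus DMSO control fitted to four-parameter logistic for IC50.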

For assay [2], the target named is T2, recombinant human MAO-A (monoamine oxidase-A) (Homo sapiens, UniProt P21397).
T2 construct: purchased Sigma-Aldrich
T2 sequence (P21397 1-527): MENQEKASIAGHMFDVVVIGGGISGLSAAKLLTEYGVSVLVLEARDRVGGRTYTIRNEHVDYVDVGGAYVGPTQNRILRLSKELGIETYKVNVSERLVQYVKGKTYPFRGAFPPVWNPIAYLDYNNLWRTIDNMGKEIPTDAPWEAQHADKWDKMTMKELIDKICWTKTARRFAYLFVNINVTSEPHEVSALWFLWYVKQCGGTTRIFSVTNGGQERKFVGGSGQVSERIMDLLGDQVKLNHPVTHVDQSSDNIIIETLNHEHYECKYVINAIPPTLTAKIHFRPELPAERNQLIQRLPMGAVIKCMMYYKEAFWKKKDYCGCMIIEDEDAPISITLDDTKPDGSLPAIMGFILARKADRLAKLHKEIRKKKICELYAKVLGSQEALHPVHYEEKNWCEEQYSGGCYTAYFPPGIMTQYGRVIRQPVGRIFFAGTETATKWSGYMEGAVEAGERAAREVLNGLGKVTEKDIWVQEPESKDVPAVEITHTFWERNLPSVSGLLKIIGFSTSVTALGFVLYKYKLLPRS
Nature of the assay: Activity evaluation on recombinant human MAO-A (Amplex Red/HRP-coupled assay, 0.5 mM tyramine substrate). The conditions noted are these: read-out: Inhibitory Activity (IC50, nM) MAO-A. An outline of the steps:
(§1)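 8-pt 1:3 dilution series, final DMSO <1%; 30 min 37 °C preincubation w/ enzyme, 50 mM Na phosphate pH 7.4; + 200 uM Amplex Red, 1 U/mL HRP, substrate (MAO-A tyramine 0.5 mM; MAO-B benzylamine 1 mM; DAO putrescine 1 mM); fluor. rate 544/590 nm, 1-2 h; 4-param IC50.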

Assay [3] has as its target T3, recombinant human MAO-B (monoamine oxidase-B) (Homo sapiens, UniProt P27338).
T3 construct: purchased Sigma-Aldrich
T3 sequence (P27338 1-520): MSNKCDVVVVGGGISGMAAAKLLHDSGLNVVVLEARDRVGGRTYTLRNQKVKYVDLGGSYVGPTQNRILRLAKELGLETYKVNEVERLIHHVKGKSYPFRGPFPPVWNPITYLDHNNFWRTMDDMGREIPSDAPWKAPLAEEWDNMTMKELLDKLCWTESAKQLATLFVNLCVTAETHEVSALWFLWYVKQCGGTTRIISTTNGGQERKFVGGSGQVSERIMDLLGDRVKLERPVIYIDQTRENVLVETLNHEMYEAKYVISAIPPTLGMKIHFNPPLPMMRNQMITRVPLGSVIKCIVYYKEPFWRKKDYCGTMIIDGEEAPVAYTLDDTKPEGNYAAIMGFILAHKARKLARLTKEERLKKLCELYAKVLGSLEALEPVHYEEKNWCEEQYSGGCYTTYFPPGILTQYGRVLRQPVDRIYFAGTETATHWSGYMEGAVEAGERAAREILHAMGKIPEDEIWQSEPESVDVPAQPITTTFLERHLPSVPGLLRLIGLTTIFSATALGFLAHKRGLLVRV
Kind of assay: Activity evaluation on recombinant human MAO-B (Amplex Red/HRP-coupled assay, 1 mM benzylamine substrate). The conditions noted are these: read-out: Inhibitory Activity (IC50, nM) MAO-B. The procedure, abridged:
as §1

Assay [4] concerns the target T4, recombinant human DAO (diamine oxidase) (Homo sapiens, UniProt P19801).
T4 construct: purchased R&D systems
T4 sequence (P19801 20-751): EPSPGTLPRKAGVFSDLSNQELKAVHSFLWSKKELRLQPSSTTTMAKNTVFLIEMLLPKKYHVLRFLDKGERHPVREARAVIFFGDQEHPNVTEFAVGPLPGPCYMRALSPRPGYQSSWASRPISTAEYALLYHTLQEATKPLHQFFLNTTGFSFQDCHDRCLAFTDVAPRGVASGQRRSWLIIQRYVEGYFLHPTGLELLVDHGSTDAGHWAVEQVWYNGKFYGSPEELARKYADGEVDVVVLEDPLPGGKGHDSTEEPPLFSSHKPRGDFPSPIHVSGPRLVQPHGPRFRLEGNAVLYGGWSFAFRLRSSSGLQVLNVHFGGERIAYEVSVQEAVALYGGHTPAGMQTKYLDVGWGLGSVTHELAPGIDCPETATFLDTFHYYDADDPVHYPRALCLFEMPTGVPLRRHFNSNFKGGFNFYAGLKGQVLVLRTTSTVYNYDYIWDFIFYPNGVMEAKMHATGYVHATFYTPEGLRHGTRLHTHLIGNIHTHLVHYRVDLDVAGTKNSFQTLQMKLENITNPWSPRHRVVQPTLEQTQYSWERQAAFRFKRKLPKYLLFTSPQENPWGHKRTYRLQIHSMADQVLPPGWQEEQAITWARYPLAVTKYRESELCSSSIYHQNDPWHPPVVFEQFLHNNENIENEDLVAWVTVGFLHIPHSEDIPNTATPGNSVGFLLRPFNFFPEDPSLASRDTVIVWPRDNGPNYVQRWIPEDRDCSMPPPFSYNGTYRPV
Kind of assay: Activity evaluation on recombinant human DAO (Amplex Red/HRP-coupled assay, 1 mM putrescine substrate). The conditions noted are these: read-out: Inhibitory Activity (IC50, nM) DAO. The procedure, abridged:
as §1

[5] abbreviates: recombinant human VAP-1, benzylamine substrate.
Setting [6] is: recombinant human VAP-1, 30 min preincubation at 37° C., 1 mM benzylamine.

Usually IC50 stands for the concentration at which inhibition is half-maximal. Consider `CC(C)n1cc(-c2csc(Cn3cnn(CC(CN)=C(F)F)c3=O)c2)cn1` [Example 195, 2-[2-(aminomethyl)-3,3-difluoro-allyl]-4-[[4-(1-isopropylpyrazol-4-yl)-2-thienyl]methyl]-1,2,4-triazol-3-one Trifluoroacetate], for which the IC50 in assay [1] (setting [5]) is 2 nM; in assay [2] (0.5 mM tyramine substrate), over 100000 nM; in assay [3] (1 mM benzylamine substrate), 38000 nM; in assay [4] (1 mM putrescine substrate), 31000 nM.

Take `CCn1cc(-c2cccc(-c3csc(Cn4cnn(CC(CN)=C(F)F)c4=O)c3)c2)cn1` [Example 289, 2-[2-(aminomethyl)-3,3-difluoro-allyl]-4-[[4-[3-(1-ethylpyrazol-4-yl)phenyl]-2-thienyl]methyl]-1,2,4-triazol-3-one Trifluoroacetate]: the IC50 was 0.6 nM in assay [1] (setting [5]), over 100000 nM in assay [2] (0.5 mM tyramine substrate), 12000 nM in assay [3] (1 mM benzylamine substrate) and 14500 nM in assay [4] (1 mM putrescine substrate).

Turning to `CCOc1ncc(-c2ccc(Cn3cnn(CC(CN)=C(F)F)c3=O)s2)cn1` [Example 117, 2-[2-(aminomethyl)-3,3-difluoro-allyl]-4-[[5-(2-ethoxypyrimidin-5-yl)-2-thienyl]methyl]-1,2,4-triazol-3-one Trifluoroacetate], the IC50 in assay [1] (setting [6]) is 1.1 nM; in assay [2] (0.5 mM tyramine) it was over 100000 nM; in assay [3] (1 mM benzylamine), over 100000 nM; in assay [4] (1 mM putrescine) it was 7100 nM.

As for `CS(=O)(=O)c1ccc(-c2ccc3sc(Cn4cnn(CC(CN)=C(F)F)c4=O)cc3c2)cc1` [Example 205, 2-[2-(aminomethyl)-3,3-difluoro-allyl]-4-[[5-(4-methylsulfonylphenyl)benzothiophen-2-yl]methyl]-1,2,4-triazol-3-one Trifluoroacetate], the IC50 in assay [1] (setting [5]) is 0.8 nM; in assay [2] (0.5 mM tyramine substrate), over 100000 nM; in assay [3] (1 mM benzylamine substrate) it was over 100000 nM; in assay [4] (1 mM putrescine substrate), 7670 nM.

With `CS(=O)(=O)c1ccc(-c2cccc(-n3cnn(CC(CN)=C(F)F)c3=O)c2)cc1` [Example 17, 2-[2-(aminomethyl)-3,3-difluoro-allyl]-4-[3-(4-methylsulfonylphenyl)phenyl]-1,2,4-triazol-3-one Trifluoroacetate], the IC50 is 12 nM in assay [1] (setting [6]), over 100000 nM in assay [2] (0.5 mM tyramine), over 10000 nM in assay [3] (1 mM benzylamine) and 1300 nM in assay [4] (1 mM putrescine).

Take `Cc1cc(-c2ccc(N(C)C)nc2)sc1Cn1cnn(CC(CN)=C(F)F)c1=O` [Example 157, 2-[2-(aminomethyl)-3,3-difluoro-allyl]-4-[[5-[6-(dimethylamino)-3-pyridyl]-3-methyl-2-thienyl]methyl]-1,2,4-triazol-3-one Trifluoroacetate]: the IC50 in assay [1] (setting [6]) was 2.3 nM; in assay [2] (0.5 mM tyramine) it was over 100000 nM; in assay [3] (1 mM benzylamine), over 100000 nM; in assay [4] (1 mM putrescine), over 100000 nM.

With `CC(=O)c1ccc(-c2cnc(-n3cnn(CC(CN)=C(F)F)c3=O)c(C)c2)s1` [Example 231, 4-[5-(5-acetyl-2-thienyl)-3-methyl-2-pyridyl]-2-[2-(aminomethyl)-3,3-difluoro-allyl]-1,2,4-triazol-3-one Trifluoroacetate], the IC50 in assay [1] (setting [5]) was found to be 0.2 nM; in assay [2] (0.5 mM tyramine substrate), 40400 nM; in assay [3] (1 mM benzylamine substrate), 1950 nM; in assay [4] (1 mM putrescine substrate), 3910 nM.

Consider `NCC(Cn1ncn(Cc2ccc(C#Cc3ccc4c(c3)CCC(=O)N4)s2)c1=O)=C(F)F` [Example 165, 6-[2-[5-[[1-[2-(aminomethyl)-3,3-difluoro-allyl]-5-oxo-1,2,4-triazol-4-yl]methyl]-2-thienyl]ethynyl]-3,4-dihydro-1H-quinolin-2-one Trifluoroacetate], for which the IC50 in assay [1] (setting [6]) was 0.5 nM; in assay [2] (0.5 mM tyramine), over 100000 nM; in assay [3] (1 mM benzylamine), 5900 nM; in assay [4] (1 mM putrescine) it was over 10000 nM.

`CCn1cc(-c2csc(Cn3cnn(CC(CN)=C(F)F)c3=O)c2)ccc1=O` [Example 193, 5-[5-[[1-[2-(aminomethyl)-3,3-difluoro-allyl]-5-oxo-1,2,4-triazol-4-yl]methyl]-3-thienyl]-1-ethyl-pyridin-2-one Trifluoroacetate]: the IC50 in assay [1] (setting [5]) is 1.3 nM; in assay [2] (0.5 mM tyramine substrate), over 100000 nM; in assay [3] (1 mM benzylamine substrate), over 100000 nM; in assay [4] (1 mM putrescine substrate), 8700 nM.

Take `NCC(Cn1ncn(-c2cccc(Br)c2)c1=O)=C(F)F` [Example 2, 2-[2-(aminomethyl)-3,3-difluoro-allyl]-4-(3-bromophenyl)-1,2,4-triazol-3-one Trifluoroacetate]: the IC50 in assay [1] (setting [6]) was 6.2 nM; in assay [2] (0.5 mM tyramine), over 100000 nM; in assay [3] (1 mM benzylamine), over 100000 nM; in assay [4] (1 mM putrescine), 46000 nM.

As for `Cc1cc(-n2cnn(CC(CN)=C(F)F)c2=O)cnc1-c1ccc(C(F)(F)F)nc1` [Example 77, 2-[2-(aminomethyl)-3,3-difluoro-allyl]-4-[5-methyl-6-[6-(trifluoromethyl)-3-pyridyl]-3-pyridyl]-1,2,4-triazol-3-one Trifluoroacetate], the IC50 was 1 nM in assay [1] (setting [6]), over 100000 nM in assay [2] (0.5 mM tyramine), 1600 nM in assay [3] (1 mM benzylamine) and 10 nM in assay [4] (1 mM putrescine).
